Data reported in US9951063B2, “8-(piperazin-1-yl)-1,2,3,4-tetrahydro-isoquinoline derivatives” (IDORSIA PHARMACEUTICALS LTD, priority 2014, dated 2018).

The compounds below were run against human CXCR3A (Homo sapiens (Human), UniProt P49682) (assay: FLIPR assay (inhibition of CXCL10-induced calcium signal)). Details: engineered CHO-K1 cells expressing human CXCR3A coupled to Galpha(16); Fluo-4-AM; CXCL10 agonist 20 nM; mean values where determined several times.
Assay type: cell-based
In short: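 CHO-K1 cells expressing human CXCR3A coupled to Gα16 were loaded with Fluo-4-AM for 1 h in HBSS/20 mM Hepes pH 7.4 with probenecid. Compound was added, then CXCL10 (20 nM as dispensed). Baseline-subtracted peak fluorescence gave inhibition curves and IC50, averaged over repeats.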

human CXCR3A, sequence (P49682 whole entry): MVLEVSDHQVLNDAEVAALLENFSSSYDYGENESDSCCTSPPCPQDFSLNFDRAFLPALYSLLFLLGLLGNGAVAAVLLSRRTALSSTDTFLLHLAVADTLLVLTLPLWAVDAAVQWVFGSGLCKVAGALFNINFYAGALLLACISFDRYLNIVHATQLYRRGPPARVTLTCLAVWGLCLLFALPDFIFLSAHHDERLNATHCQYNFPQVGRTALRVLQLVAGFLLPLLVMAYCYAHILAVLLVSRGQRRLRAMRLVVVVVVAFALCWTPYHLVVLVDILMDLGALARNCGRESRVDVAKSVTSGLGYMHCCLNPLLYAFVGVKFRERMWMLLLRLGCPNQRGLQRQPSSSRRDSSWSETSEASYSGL

| SMILES | IC50 [nM] |
| --- | --- |
| CCOc1ncc(N2CCc3cccc(N4CCN(C(=O)Cn5nc(C)nc5C)[C@H](C)C4)c3C2)cn1 [Example 127, 2-(3,5-Dimethyl-[1,2,4]triazol-1-yl)-1-{(R)-4-[2-(2-ethoxy-pyrimidin-5-yl)-1,2,3,4-tetrahydro-isoquinolin-8-yl]-2-methyl-piperazin-1-yl}-ethanone] | 33.1 |
| CCOc1ncc(N2CCc3cccc(N4CCN(C(=O)Cn5nc(C)cc5C)[C@H](C)C4)c3C2)cn1 [Example 128, 2-(3,5-Dimethyl-pyrazol-1-yl)-1-{(R)-4-[2-(2-ethoxy-pyrimidin-5-yl)-1,2,3,4-tetrahydro-isoquinolin-8-yl]-2-methyl-piperazin-1-yl}-ethanone] | 7.94 |
| CCOc1ncc(N2CCc3c(F)ccc(N4CCN(C(=O)Cn5cnc6cccnc65)[C@H](C)C4)c3C2)cn1 [Example 129, 1-{(R)-4-[2-(2-Ethoxy-pyrimidin-5-yl)-5-fluoro-1,2,3,4-tetrahydro-isoquinolin-8-yl]-2-methyl-piperazin-1-yl}-2-imidazo[4,5-b]pyridin-3-yl-ethanone] | 3.1 |
| Cc1nc(C)n(CC(=O)N2CCN(c3ccc(F)c4c3CN(c3cnc(C5CC5)nc3)CC4)C[C@H]2C)n1 [Example 133, 1-{(R)-4-[2-(2-Cyclopropyl-pyrimidin-5-yl)-5-fluoro-1,2,3,4-tetrahydro-isoquinolin-8-yl]-2-methyl-piperazin-1-yl}-2-(3,5-dimethyl-[1,2,4]triazol-1-yl)-ethanone] | 5.42 |
| C[C@@H]1CN(c2cccc3c2CN(C(=O)OCc2ccccc2)CC3)CCN1C(=O)Cn1cccn1 [Example 135, 8-[(R)-3-Methyl-4-(2-pyrazol-1-yl-acetyl)-piperazin-1-yl]-3,4-dihydro-1H-isoquinoline-2-carboxylic acid benzyl ester] | 116 |
| O=C(Cn1cnc2cccnc21)N1CCN(c2cccc3c2CN(C(=O)OCc2ccccc2)CC3)CC1 [Example 137, 8-[4-(2-Imidazo[4,5-b]pyridin-3-yl-acetyl)-piperazin-1-yl]-3,4-dihydro-1H-isoquinoline-2-carboxylic acid benzyl ester] | 9.1 |
| O=C(Cn1ccc2cccnc21)N1CCN(c2cccc3c2CN(C(=O)OCc2ccccc2)CC3)CC1 [Example 138, 8-[4-(2-Pyrrolo[2,3-b]pyridin-1-yl-acetyl)-piperazin-1-yl]-3,4-dihydro-1H-isoquinoline-2-carboxylic acid benzyl ester] | 12.4 |
| Cn1c(=O)n(CC(=O)N2CCN(c3cccc4c3CN(C(=O)OCc3ccccc3)CC4)CC2)c2ccccc21 [Example 139, 8-{4-[2-(3-Methyl-2-oxo-2,3-dihydro-benzoimidazol-1-yl)-acetyl]-piperazin-1-yl}-3,4-dihydro-1H-isoquinoline-2-carboxylic acid benzyl ester] | 21.7 |
| Cn1c(=O)n(CC(=O)N2CCN(c3cccc4c3CN(C(=O)c3ccccc3)CC4)CC2)c2ccccc21 [Example 140, 1-{2-[4-(2-Benzoyl-1,2,3,4-tetrahydro-isoquinolin-8-yl)-piperazin-1-yl]-2-oxo-ethyl}-3-methyl-1,3-dihydro-benzoimidazol-2-one] | 51.2 |
| Cn1c(=O)n(CC(=O)N2CCN(c3cccc4c3CN(C(=O)Cc3ccccc3)CC4)CC2)c2ccccc21 [Example 141, 1-Methyl-3-{2-oxo-2-[4-(2-phenylacetyl-1,2,3,4-tetrahydro-isoquinolin-8-yl)-piperazin-1-yl]-ethyl}-1,3-dihydro-benzoimidazol-2-one] | 190 |
| C[C@@H]1CN(c2ccc(C(F)(F)F)c3c2CN(C(=O)OCc2ccccc2)CC3)CCN1C(=O)Cn1cnc2cccnc21 [Example 145, 8-[(R)-4-(2-Imidazo[4,5-b]pyridin-3-yl-acetyl)-3-methyl-piperazin-1-yl]-5-trifluoromethyl-3,4-dihydro-1H-isoquinoline-2-carboxylic acid benzyl ester] | 25.6 |

Further compounds by falling IC50, results first:

| IC50 [nM] | SMILES |
| --- | --- |
| 465 | C[C@@H]1CN(c2cccc3c2CN(Cc2ccc(Cl)cc2)CC3)CCN1C(=O)Cn1cnc2cccnc21 [Example 143, 1-{(R)-4-[2-(4-Chloro-benzyl)-1,2,3,4-tetrahydro-isoquinolin-8-yl]-2-methyl-piperazin-1-yl}-2-imidazo[4,5-b]pyridin-3-yl-ethanone] |
| 85.7 | C[C@@H]1CN(c2ccc(Br)c3c2CN(C(=O)OCc2ccccc2)CC3)CCN1C(=O)Cn1cnc2cccnc21 [Example 144, 5-Bromo-8-[(R)-4-(2-imidazo[4,5-b]pyridin-3-yl-acetyl)-3-methyl-piperazin-1-yl]-3,4-dihydro-1H-isoquinoline-2-carboxylic acid benzyl ester] |
| 65.4 | O=C(Cn1cnc2cccnc21)N1CCN(c2cccc3c2CN(S(=O)(=O)Cc2ccccc2)CC3)CC1 [Example 142, 2-Imidazo[4,5-b]pyridin-3-yl-1-[4-(2-phenylmethanesulfonyl-1,2,3,4-tetrahydro-isoquinolin-8-yl)-piperazin-1-yl]-ethanone] |
| 58.9 | Cc1nc(C)n(CC(=O)N2CCN(c3ccc(F)c4c3CN(c3cnc(C(F)(F)F)nc3)CC4)C[C@H]2C)n1 [Example 132, 2-(3,5-Dimethyl-[1,2,4]triazol-1-yl)-1-{(R)-4-[5-fluoro-2-(2-trifluoromethyl-pyrimidin-5-yl)-1,2,3,4-tetrahydro-isoquinolin-8-yl]-2-methyl-piperazin-1-yl}-ethanone] |
| 52.1 | CCOc1ncc(N2CCc3cc(C(F)(F)F)cc(N4CCN(C(=O)Cn5cnc6cccnc65)[C@H](C)C4)c3C2)cn1 [Example 134, 1-{(R)-4-[2-(2-Ethoxy-pyrimidin-5-yl)-6-trifluoromethyl-1,2,3,4-tetrahydro-isoquinolin-8-yl]-2-methyl-piperazin-1-yl}-2-imidazo[4,5-b]pyridin-3-yl-ethanone] |
| 33.2 | Cc1nc(C)n(CC(=O)N2CCN(c3cccc4c3CN(C(=O)OCc3ccccc3)CC4)C[C@H]2C)n1 [Example 136, 8-{(R)-4-[2-(3,5-Dimethyl-[1,2,4]triazol-1-yl)-acetyl]-3-methyl-piperazin-1-yl}-3,4-dihydro-1H-isoquinoline-2-carboxylic acid benzyl ester] |
| 24.3 | CCOc1ncc(N2CCc3c(F)ccc(N4CCN(C(=O)Cn5nc(C)nc5C)[C@H](C)C4)c3C2)cn1 [Example 131, 2-(3,5-Dimethyl-[1,2,4]triazol-1-yl)-1-{(R)-4-[2-(2-ethoxy-pyrimidin-5-yl)-5-fluoro-1,2,3,4-tetrahydro-isoquinolin-8-yl]-2-methyl-piperazin-1-yl}-ethanone] |
| 15.6 | C[C@@H]1CN(c2ccc(C#N)c3c2CN(C(=O)OCc2ccccc2)CC3)CCN1C(=O)Cn1cnc2cccnc21 [Example 146, 5-Cyano-8-[(R)-4-(2-imidazo[4,5-b]pyridin-3-yl-acetyl)-3-methyl-piperazin-1-yl]-3,4-dihydro-1H-isoquinoline-2-carboxylic acid benzyl ester] |
| 8.58 | Cc1nc(C)n(CC(=O)N2CCN(c3cc(F)c(F)c4c3CN(c3cnc(C(F)(F)F)nc3)CC4)C[C@H]2C)n1 [Example 147, 1-{(R)-4-[5,6-Difluoro-2-(2-trifluoromethyl-pyrimidin-5-yl)-1,2,3,4-tetrahydro-isoquinolin-8-yl]-2-methyl-piperazin-1-yl}-2-(3,5-dimethyl-[1,2,4]triazol-1-yl)-ethanone] |
| 5.7 | CCOc1ncc(N2CCc3c(F)ccc(N4CCN(C(=O)Cn5nc(C)cc5C)[C@H](C)C4)c3C2)cn1 [Example 130, 2-(3,5-Dimethyl-pyrazol-1-yl)-1-{(R)-4-[2-(2-ethoxy-pyrimidin-5-yl)-5-fluoro-1,2,3,4-tetrahydro-isoquinolin-8-yl]-2-methyl-piperazin-1-yl}-ethanone] |
